{"source": "paper PMC5218480", "about": "(PLoS ONE, 2017)", "test_system": "MV-4-11 cells", "assay": "Gene expression microarray analysis (Affymetrix PrimeView) and GSEA", "type": "cell-based, human", "design": "RFU PODN (11730768_x_at) / Fold change /veh PODN (11730768_x_at) / RFU LINC00158 (11744669_a_at) / Fold change /veh LINC00158 (11744669_a_at) / RFU DUSP10 (11751237_a_at) / Fold change /veh DUSP10 (11751237_a_at) / RFU ID3 (11757404_x_at) / Fold change /veh ID3 (11757404_x_at) / RFU PLEKHG5 (11737974_s_at) / Fold change /veh PLEKHG5 (11737974_s_at) / RFU LRRC4B (11730491_at) / Fold change /veh LRRC4B (11730491_at) / RFU GIMAP4 (11747438_a_at) / Fold change /veh GIMAP4 (11747438_a_at) / RFU KRT8 (11758183_x_at) / Fold change /veh KRT8 (11758183_x_at) / RFU CNN1 (11734310_a_at) / Fold change /veh CNN1 (11734310_a_at) / RFU VPS37D (11726825_at) / Fold change /veh VPS37D (11726825_at) / RFU C10orf10 (11716522_x_at) / Fold change /veh C10orf10 (11716522_x_at) / RFU KIR2DL2 /// KIR2DL4 /// KIR2DL5A /// KIR2DL5B /// KIR2DS1 /// KIR2DS2 /// KIR2DS3 /// KIR2DS4 /// KIR3DL3 /// KIR3DL3 /// KIR3DS1 (11738374_at) / Fold change /veh KIR2DL2 /// KIR2DL4 /// KIR2DL5A /// KIR2DL5B /// KIR2DS1 /// KIR2DS2 /// KIR2DS3 /// KIR2DS4 /// KIR3DL3 /// KIR3DL3 /// KIR3DS1 (11738374_at) / RFU C1QL1 (11718748_at) / Fold change /veh C1QL1 (11718748_at) / RFU TMPRSS4 (11747572_a_at) / Fold change /veh TMPRSS4 (11747572_a_at) / RFU HAMP (11756126_x_at) / Fold change /veh HAMP (11756126_x_at) / RFU RNFT2 (11725882_a_at) / Fold change /veh RNFT2 (11725882_a_at) / RFU NR4A2 (11747474_a_at) / Fold change /veh NR4A2 (11747474_a_at) / RFU ABCC12 (11746883_a_at) / Fold change /veh ABCC12 (11746883_a_at) / RFU TMEM136 (11760407_x_at) / Fold change /veh TMEM136 (11760407_x_at) / RFU CLDN22 /// WWC2 (11732394_at) / Fold change /veh CLDN22 /// WWC2 (11732394_at) / RFU HLA-DPB1 (11760878_x_at) / Fold change /veh HLA-DPB1 (11760878_x_at) / RFU SPINT1 (11716480_a_at) / Fold change /veh SPINT1 (11716480_a_at) / RFU GAP43 (11754022_s_at) / Fold change /veh GAP43 (11754022_s_at) / RFU A4GNT (11735810_at) / Fold change /veh A4GNT (11735810_at) / RFU PRB3 (11715151_x_at) / Fold change /veh PRB3 (11715151_x_at) / RFU TUBB4B (11761932_at) / Fold change /veh TUBB4B (11761932_at) / RFU CAPN14 (11732068_a_at) / Fold change /veh CAPN14 (11732068_a_at) / RFU TMCC2 (11721928_a_at) / Fold change /veh TMCC2 (11721928_a_at) / RFU IRGQ (11745062_a_at) / Fold change /veh IRGQ (11745062_a_at) / RFU FAM174B (11720279_a_at) / Fold change /veh FAM174B (11720279_a_at) / RFU TMPRSS4 (11748680_a_at) / Fold change /veh TMPRSS4 (11748680_a_at) / RFU FAM212B (11763350_a_at) / Fold change /veh FAM212B (11763350_a_at) / RFU PLEKHG5 (11743358_a_at) / Fold change /veh PLEKHG5 (11743358_a_at) / RFU ZSCAN30 (11745921_a_at) / Fold change /veh ZSCAN30 (11745921_a_at) / RFU CMKLR1 (11741424_a_at) / Fold change /veh CMKLR1 (11741424_a_at) / RFU LOC101060620 /// MAPK8IP1 (11723275_at) / Fold change /veh LOC101060620 /// MAPK8IP1 (11723275_at) / RFU SPTSSB (11747773_x_at) / Fold change /veh SPTSSB (11747773_x_at) / RFU PRSS12 (11739890_at) / Fold change /veh PRSS12 (11739890_at) / RFU BIN1 (11741810_x_at) / Fold change /veh BIN1 (11741810_x_at) / RFU WNT11 (11732464_a_at) / Fold change /veh WNT11 (11732464_a_at) / RFU C10orf10 (11716521_a_at) / Fold change /veh C10orf10 (11716521_a_at) / RFU C5orf56 (11738089_at) / Fold change /veh C5orf56 (11738089_at) / RFU CYB561 (11721691_x_at) / Fold change /veh CYB561 (11721691_x_at) / RFU ANKRD19P (11752326_a_at) / Fold change /veh ANKRD19P (11752326_a_at) / RFU OR2T12 /// OR2T33 /// OR2T8 (11738714_s_at) / Fold change /veh OR2T12 /// OR2T33 /// OR2T8 (11738714_s_at) / RFU VCAN (11748164_a_at) / Fold change /veh VCAN (11748164_a_at) / RFU JSRP1 (11732532_at) / Fold change /veh JSRP1 (11732532_at) / RFU KRTAP10-11 (11738290_x_at) / Fold change /veh KRTAP10-11 (11738290_x_at) / RFU MYO3A (11730013_a_at) / Fold change /veh MYO3A (11730013_a_at) / RFU EBF3 (11725865_a_at) / Fold change /veh EBF3 (11725865_a_at) / RFU CAMK2N1 (11719241_x_at) / Fold change /veh CAMK2N1 (11719241_x_at) / RFU C5orf56 (11738088_a_at) / Fold change /veh C5orf56 (11738088_a_at) / RFU OLFML3 (11715873_a_at) / Fold change /veh OLFML3 (11715873_a_at) / RFU LOC100653217 /// NTM (11731650_a_at) / Fold change /veh LOC100653217 /// NTM (11731650_a_at) / RFU MAPK11 (11762145_a_at) / Fold change /veh MAPK11 (11762145_a_at) / RFU FIZ1 (11724087_x_at) / Fold change /veh FIZ1 (11724087_x_at) / RFU OASL (11726364_x_at) / Fold change /veh OASL (11726364_x_at) / RFU SOX15 (11748057_x_at) / Fold change /veh SOX15 (11748057_x_at) / RFU CD79A (11719716_a_at) / Fold change /veh CD79A (11719716_a_at) / RFU HIST1H1D (11736915_at) / Fold change /veh HIST1H1D (11736915_at) / RFU CASKIN2 (11723855_a_at) / Fold change /veh CASKIN2 (11723855_a_at) / RFU LOC730098 (11760151_x_at) / Fold change /veh LOC730098 (11760151_x_at) / RFU OR4N2 (11742367_at) / Fold change /veh OR4N2 (11742367_at) / RFU PRRT2 (11749266_a_at) / Fold change /veh PRRT2 (11749266_a_at) / RFU SNX32 (11753110_a_at) / Fold change /veh SNX32 (11753110_a_at) / RFU CDHR5 (11726645_a_at) / Fold change /veh CDHR5 (11726645_a_at) / RFU RCAN1 (11760418_a_at) / Fold change /veh RCAN1 (11760418_a_at) / RFU FAM167A (11723789_a_at) / Fold change /veh FAM167A (11723789_a_at) / RFU FAM26E (11764081_at) / Fold change /veh FAM26E (11764081_at) / RFU ISYNA1 (11749810_s_at) / Fold change /veh ISYNA1 (11749810_s_at) / RFU ACY1 (11761880_at) / Fold change /veh ACY1 (11761880_at) / RFU 11764098_at / Fold change /veh 11764098_at / RFU SAMD14 (11745864_x_at) / Fold change /veh SAMD14 (11745864_x_at) / RFU NPB (11741838_a_at) / Fold change /veh NPB (11741838_a_at) / RFU TMPRSS6 (11731388_a_at) / Fold change /veh TMPRSS6 (11731388_a_at) / RFU KRTAP10-2 (11738614_at) / Fold change /veh KRTAP10-2 (11738614_at) / RFU ARHGAP8 /// PRR5-ARHGAP8 (11727945_x_at) / Fold change /veh ARHGAP8 /// PRR5-ARHGAP8 (11727945_x_at) / RFU KRTAP5-7 /// NADSYN1 (11734609_at) / Fold change /veh KRTAP5-7 /// NADSYN1 (11734609_at) / RFU RASL12 (11751679_a_at) / Fold change /veh RASL12 (11751679_a_at) / RFU CDKN2B (11736163_a_at) / Fold change /veh CDKN2B (11736163_a_at) / RFU PRF1 (11729649_at) / Fold change /veh PRF1 (11729649_at) / RFU, ZNF638 /// ZNF638-IT1 / Fold change vs veh, ZNF638 /// ZNF638-IT1 / RFU, PANK3 / Fold change vs veh, PANK3 / RFU, SH3YL1 / Fold change vs veh, SH3YL1 / RFU, ZEB2 / Fold change vs veh, ZEB2 / RFU, NRIP1 / Fold change vs veh, NRIP1 / RFU, PTTG1IP / Fold change vs veh, PTTG1IP / RFU, CAPN2 / Fold change vs veh, CAPN2 / RFU, MED14 / Fold change vs veh, MED14 / RFU, SNORA58 / Fold change vs veh, SNORA58 / RFU, C1orf63 / Fold change vs veh, C1orf63 / RFU, LRRFIP1 / Fold change vs veh, LRRFIP1 / RFU, NDUFAF7 / Fold change vs veh, NDUFAF7 / RFU, SLC12A2 / Fold change vs veh, SLC12A2 / RFU, IBTK / Fold change vs veh, IBTK / RFU, ESF1 / Fold change vs veh, ESF1 / Fold change vs veh, TMEM50B / RFU, TAOK1 / Fold change vs veh, TAOK1 / RFU, ACBD3 / Fold change vs veh, ACBD3 / RFU, TMA16 / Fold change vs veh, TMA16 / RFU, RWDD3 / Fold change vs veh, RWDD3 / RFU, BCAT1 / Fold change vs veh, BCAT1 / RFU, EDEM3 / Fold change vs veh, EDEM3 / RFU, TMEM33 / Fold change vs veh, TMEM33 / RFU, WDR75 / Fold change vs veh, WDR75 / RFU, AHCTF1 / Fold change vs veh, AHCTF1 / RFU, TFRC / Fold change vs veh, TFRC / RFU, ZDHHC17 / Fold change vs veh, ZDHHC17 / RFU, NOM1 / Fold change vs veh, NOM1 / RFU, ARL8B / Fold change vs veh, ARL8B / RFU, ZBTB11 / Fold change vs veh, ZBTB11 / RFU, TAMM41 / Fold change vs veh, TAMM41 / RFU, KIAA1704 /// LOC100996395 / Fold change vs veh, KIAA1704 /// LOC100996395 / RFU, ING1 / Fold change vs veh, ING1 / RFU, TRMT61B / Fold change vs veh, TRMT61B / RFU, FUBP3 / Fold change vs veh, FUBP3 / RFU, TP53 / Fold change vs veh, TP53 / RFU, TNKS2 / Fold change vs veh, TNKS2 / RFU, ZFP14 / Fold change vs veh, ZFP14 / RFU, ACTR2 / Fold change vs veh, ACTR2 / RFU, PPP3R1 / Fold change vs veh, PPP3R1 / RFU, PIK3R1 / Fold change vs veh, PIK3R1 / RFU, HNRNPA1 / Fold change vs veh, HNRNPA1 / RFU, RNF170 / Fold change vs veh, RNF170 / RFU, ZNF28 / Fold change vs veh, ZNF28 / RFU, RNGTT / Fold change vs veh, RNGTT / RFU, OGT / Fold change vs veh, OGT / RFU, BRD1 / Fold change vs veh, BRD1 / RFU, MARS / Fold change vs veh, MARS / RFU, ZNF655 / Fold change vs veh, ZNF655 / RFU, FAHD1 / Fold change vs veh, FAHD1 / RFU, BDP1 / Fold change vs veh, BDP1 / RFU, LRRCC1 / Fold change vs veh, LRRCC1 / RFU, ARID1A / Fold change vs veh, ARID1A / RFU, ZNF146 / Fold change vs veh, ZNF146 / RFU, ZNF330 / Fold change vs veh, ZNF330 / RFU, GPN3 / Fold change vs veh, GPN3 / RFU, C9orf123 / Fold change vs veh, C9orf123 / RFU, N4BP2L2 / Fold change vs veh, N4BP2L2 / RFU, ARFIP1 / Fold change vs veh, ARFIP1 / RFU, FAM179B / Fold change vs veh, FAM179B / RFU, BCL10 / Fold change vs veh, BCL10 / RFU, UHRF1BP1L / Fold change vs veh, UHRF1BP1L / RFU, BET1 / Fold change vs veh, BET1 / RFU, CNOT2 / Fold change vs veh, CNOT2 / RFU, ZNF268 / Fold change vs veh, ZNF268 / Fold change vs veh, ZNF507 / RFU, DGCR2 / Fold change vs veh, DGCR2 / RFU, WDSUB1 / Fold change vs veh, WDSUB1 / Fold change vs veh, HSP90B1 /// MIR3652 / RFU, ADSS / Fold change vs veh, ADSS / RFU, GK / Fold change vs veh, GK / RFU, ZNF148 / Fold change vs veh, ZNF148 / RFU, TAF9 / Fold change vs veh, TAF9 / RFU, SLC1A5 / Fold change vs veh, SLC1A5 / RFU, SLMO2 / Fold change vs veh, SLMO2 / RFU, ABCC4 / Fold change vs veh, ABCC4 / RFU, LOC101060439 /// RAP1B / Fold change vs veh, LOC101060439 /// RAP1B / RFU, RFX7 / Fold change vs veh, RFX7 / RFU, GTPBP10 / Fold change vs veh, GTPBP10 / RFU, CNEP1R1 / Fold change vs veh, CNEP1R1 / RFU, BIVM-ERCC5 /// ERCC5 / Fold change vs veh, BIVM-ERCC5 /// ERCC5 / RFU, ILF3 / Fold change vs veh, ILF3 / RFU 11762660_at / Fold change /veh 11762660_at / RFU VCAN (11757783_s_at) / Fold change /veh VCAN (11757783_s_at) / RFU DDX43 (11728927_at) / Fold change /veh DDX43 (11728927_at) / RFU KRT8 (11758188_x_at) / Fold change /veh KRT8 (11758188_x_at) / RFU NKD1 (11759106_at) / Fold change /veh NKD1 (11759106_at) / RFU SRD5A1 (11742802_a_at) / Fold change /veh SRD5A1 (11742802_a_at) / RFU TPSAB1 /// TPSB2 (11721975_s_at) / Fold change /veh TPSAB1 /// TPSB2 (11721975_s_at) / RFU GSTM3 (11746129_a_at) / Fold change /veh GSTM3 (11746129_a_at) / RFU IL23R (11737362_x_at) / Fold change /veh IL23R (11737362_x_at) / RFU TMEM51 (11727254_a_at) / Fold change /veh TMEM51 (11727254_a_at) / RFU PIWIL2 (11732686_x_at) / Fold change /veh PIWIL2 (11732686_x_at) / RFU ORM1 (11744905_x_at) / Fold change /veh ORM1 (11744905_x_at) / RFU CCDC152 (11743942_at) / Fold change /veh CCDC152 (11743942_at) / RFU ECM1 (11717891_a_at) / Fold change /veh ECM1 (11717891_a_at) / RFU IL23R (11748794_a_at) / Fold change /veh IL23R (11748794_a_at) / RFU TNFAIP8L3 (11732012_x_at) / Fold change /veh TNFAIP8L3 (11732012_x_at) / RFU MBOAT4 (11741988_at) / Fold change /veh MBOAT4 (11741988_at) / RFU 11764193_at / Fold change /veh 11764193_at / RFU TMEM53 (11763286_at) / Fold change /veh TMEM53 (11763286_at) / RFU MAGEB2 (11727129_at) / Fold change /veh MAGEB2 (11727129_at) / RFU TMEM200A (11744735_a_at) / Fold change /veh TMEM200A (11744735_a_at) / RFU CCDC152 (11751479_a_at) / Fold change /veh CCDC152 (11751479_a_at) / RFU FAM211A (11726209_a_at) / Fold change /veh FAM211A (11726209_a_at) / RFU RGS16 (11746705_a_at) / Fold change /veh RGS16 (11746705_a_at) / RFU VCAN (11755009_s_at) / Fold change /veh VCAN (11755009_s_at) / RFU RHOB (11743442_s_at) / Fold change /veh RHOB (11743442_s_at) / RFU RGS16 (11720943_a_at) / Fold change /veh RGS16 (11720943_a_at) / RFU RGS16 (11720944_at) / Fold change /veh RGS16 (11720944_at) / RFU, VPS4B / Fold change vs veh, VPS4B / RFU, CREB1 / Fold change vs veh, CREB1 / RFU, DNAJC13 / Fold change vs veh, DNAJC13 / RFU, GNAQ / Fold change vs veh, GNAQ / RFU, CDK5R1 / Fold change vs veh, CDK5R1 / RFU, ZRANB3 / Fold change vs veh, ZRANB3 / RFU, CUL4A / Fold change vs veh, CUL4A / RFU, CCNY / Fold change vs veh, CCNY / RFU, UFL1 / Fold change vs veh, UFL1 / RFU, COG3 / Fold change vs veh, COG3 / RFU, DIAPH2 / Fold change vs veh, DIAPH2 / RFU, SKA2 / Fold change vs veh, SKA2 / RFU, AFF3 / Fold change vs veh, AFF3 / RFU, LMF1 / Fold change vs veh, LMF1 / RFU, IPO11 / Fold change vs veh, IPO11 / RFU, DFFB / Fold change vs veh, DFFB / RFU, FOXP1 / Fold change vs veh, FOXP1 / RFU, CARD8 / Fold change vs veh, CARD8 / RFU, STRN3 / Fold change vs veh, STRN3 / RFU, ADK / Fold change vs veh, ADK / RFU, RASSF2 / Fold change vs veh, RASSF2 / RFU, WIPF1 / Fold change vs veh, WIPF1 / RFU, LARP1B / Fold change vs veh, LARP1B / RFU, RASA1 / Fold change vs veh, RASA1 / RFU, RB1 / Fold change vs veh, RB1 / RFU, PPFIA1 / Fold change vs veh, PPFIA1 / RFU, MAT2A / Fold change vs veh, MAT2A / RFU, CCT5 / Fold change vs veh, CCT5 / RFU, WDR92 / Fold change vs veh, WDR92 / RFU, CUX1 / Fold change vs veh, CUX1 / RFU, TTC7A / Fold change vs veh, TTC7A / RFU, TMEM135 / Fold change vs veh, TMEM135 / RFU, DEPTOR / Fold change vs veh, DEPTOR / RFU, CPM / Fold change vs veh, CPM / RFU, DNAJB6 / Fold change vs veh, DNAJB6 / RFU, CACNA2D3 / Fold change vs veh, CACNA2D3 / RFU, DTX4 / Fold change vs veh, DTX4 / RFU, TFCP2 / Fold change vs veh, TFCP2 / RFU, GMCL1 /// GMCL1P1 / Fold change vs veh, GMCL1 /// GMCL1P1 / RFU, AEBP2 / Fold change vs veh, AEBP2 / RFU, SNHG1 /// SNORD22 /// SNORD25 /// SNORD26 /// SNORD27 /// SNORD28 /// SNORD29 /// SNORD31 / Fold change vs veh, SNHG1 /// SNORD22 /// SNORD25 /// SNORD26 /// SNORD27 /// SNORD28 /// SNORD29 /// SNORD31 / Fold change (Aza/veh), C12orf56 (ProbeSet 11735607_a_at) / Fold change (ACY-1035/veh), C12orf56 (ProbeSet 11735607_a_at) / Fold change (Aza/veh), FGFR1OP (ProbeSet 11751329_s_at) / Fold change (ACY-1035/veh), FGFR1OP (ProbeSet 11751329_s_at) / Fold change (Aza/veh), VPS36 (ProbeSet 11739960_a_at) / Fold change (ACY-1035/veh), VPS36 (ProbeSet 11739960_a_at) / RFU SYPL1 (11715823_x_at) / Fold change /veh SYPL1 (11715823_x_at) / RFU IGFBP7 (11715501_s_at) / Fold change /veh IGFBP7 (11715501_s_at) / RFU REEP3 (11722064_at) / Fold change /veh REEP3 (11722064_at) / RFU IGLL1 (11728026_x_at) / Fold change /veh IGLL1 (11728026_x_at): dose or concentration left out as unconfirmed", "conditions": "ProbeSet 11728443_a_at; LIST B", "data": [{"smiles": "Nc1ccc(-c2cccs2)cc1NC(=O)c1ccc2c(c1)cc(C1CC1)n2CCN1CCOCC1", "note": "[ACY-1035]", "values": [{"measurement": "Fold change vs veh, TAOK1", "result": 0.89}]}]}
